Assay results published in patent US8288390B2, “Benzofuran derivatives” (Takeda Pharmaceutical Company Limited, priority 2009, dated 2012).

Tests used:
rat mixed glial culture = test: Activity of promoting neuronal neogenesis in rat mixed glial culture; format: cell-based; details: Rattus norvegicus, 72 h, compound 1 μM + rhIGF-1 100 ng/ml, 3 days culture; absorbance at 450 nm (class III beta-tubulin antibody); control rhIGF-1 only = 100%; read-out: Increase Ratio of the Absorbance (% control)
Method: From a three-day old SD rat, hippocampus and cerebral cortex were removed. By using a kit of dispersion liquid for neuronal cells (MB-X9901, manufactured by SUMITOMO BAKELITE CO., LTD.), cell suspension was prepared and then seeded on a 96-well plate coated with collagen Type I (4860-010, manufactured by Asahi Techno Glass Co., Ltd.) to 10^5 cells/well. Under the condition of 37° C. and 5% CO2, the cells were cultured for four days in a growth medium (D-MEM/F12 with 10% FBS, comprising PS).
After culturing, the medium was exchanged with a medium for differentiation (D-MEM/F12, comprising PS), added with rhIGF-1 (R&D Systems, 291-G1-250, final concentration of 100 ng/ml) and the compound to 1 μM, followed by further culture for three days. Cultured cells were fixed with 4% paraformaldehyde-PBS (manufactured by MUTO PURE CHEMICALS CO., LTD.) and subjected to membrane penetration using 0.1% Triton X-100 PBS, followed by blocking with Block Ace solution (UK-B80, manufactured by Dainippon Sumitomo Pharma Co., Ltd.). As a primary antibody, Anti-neuron-specific class III beta-tubulin antibody (R&D Systems, MAB1195, clone Tuj-1) was used after 1000× dilution. As a secondary antibody, Anti-Mouse Ig, HRP-Linked F (ab′) 2 Fragment Sheep (Amersham Biosciences, NA9310) was used after 10000× dilution. For washing process, the plate washer (BIO-TEK INSTRUMENTS ELX405) was used. For a chromogenic reaction, the reaction was carried out for 10 minutes using TMB Microwell Peroxidase Substrate System (Kirkegaard & Perry Laboratories, 50-76-00), followed by terminating the reaction according to the addition of 1M phosphoric acid. By using the plate reader (Labsystems Multiskan BICHROMATIC), absorbance at 450 nm was measured.
The absorbance for the case in which no compound is added (i.e., control, rhIGF-1 only) was 100%, and the increase ratio of the absorbance for the compound addition (i.e., compound+rhIGF-1) compared to the control was obtained as % control. Activity of the each compound for promoting neuronal differentiation that is measured according to the above method is summarized in Table 9 and Table 10.

Akt protein = test: Activity of inhibiting Akt protein degradation in rat mixed glial culture; format: cell-based; details: compound 1 μM + rhIGF-1 100 ng/ml, 10 minutes at 37° C.; Akt calibrated with ERK; no addition = 100%, rhIGF-1 only = 0%
Method: The mixed glial cells used in the Test example 1 were seeded on a 6-well plate coated with collagen Type I (manufactured by Asahi Techno Glass Co., Ltd.) to 4×10^6 cells/well. Under the condition of 37° C. and 5% CO2, the cells were cultured for four days in a growth medium (D-MEM/F12 with 10% FBS, comprising PS). After that, the medium was exchanged with a serum-free medium (D-MEM/F12, comprising PS) and the cells were subjected to starvation for 4 hours under the condition of 37° C. and 5% CO2.
Next, rhIGF-1 (R&D Systems, 291-G1-250, final concentration 100 ng/ml) and the compound were added to obtain 1 μM and reacted in a water bath incubator at 37° C. for 10 minutes. Culture supernatant was aspirated off, 150 μL of RIPA (50 mM Tris-HCl pH7.5, 5 mM EDTA, 100 mM NaCl, 30 mM NaF, 5 mM sodium diphosphate, 137 mg/l pepstatin A, 2.5 KIU/l aprotinin, 1% NP-40, 6 mM sodium deoxycholate, 1 μM microcystinLR, 1 μM Z-Leu-Leu-Nva-H(aldehyde), 48 μM leupeptin, 96 μM 4-(2-aminoethyl)benzenesulfonyl fluoride-HCl, 1 mM sodium orthovanadate) was added thereto, and the reaction was terminated. After the termination of the reaction, the cell lysate was recovered by using a cell scraper on ice. Finally, the cell lysate was centrifuged for 30 minutes at 15000 rpm and the supernatant was taken as a cell extract.
Proteins were recovered from the cell extract by using trichloroacetic acid, and quantified according to Lowry method. Standard curve was established with bovine serum albumin. Based on the measured values, each cell extract was diluted with RIPA to prepare it in constant concentration (10 μg/lane). SDS-PAGE was carried out under reducing condition using 10% acrylamide (45 mA, 1.5 hours). After transferring to a PVDF membrane (0.13 A, 1 hour), reaction with an antibody was carried out. As a primary antibody, Akt (Cell Signaling, 9272) and ERK (Santa Cruz, sc-94) were used with the dilution ratio of 1000. As a secondary antibody, HRP-labeled anti-rabbit antibody (NA9340V, manufactured by Amersham) was used with the dilution ratio of 12500. Then, using ImmunoStar reagent (291-55203, manufactured by Wako Pure Chemical Industries, Ltd.), X-ray film detection was carried out. Quantification of the results was carried out by using GS-800 Calibrated Densitometer (manufactured by BioRad), and then the band strength was converted into the numerals by multiplying the absorbance originating from bands of Akt and ERK-1&2 by the area. Akt was calibrated with ERK to give the numeral values.
Inhibitory activity on Akt degradation was expressed as inhibition ratio. Specifically, the case in which neither the compound nor rhIGF-1 was added (no addition) is 100% and the case in which only rhIGF-1 was added is 0%, and then with the value measured from compound+rhIGF-1, the inhibition ratio was obtained. Inhibition ratio(%)=[(compound+rhIGF-1)−(rhIGF-1)]÷[(no addition)−(rhIGF-1)]×100

Tg2576 transgenic mice = test: Amelioration of cognitive function in novel object recognition test; format: in vivo, mouse; details: female Tg2576 mice, 10 mg/kg/day orally once a day for 3 weeks; retention 24 hours after training; recovery ratio vs vehicle Tg2576 and wild type
Method: Female Tg2576 transgenic mice and wild-type littermates were used at 8-9 months old. All animals were housed in room maintained at 24±1° C. with a 12-h light/dark cycle. Lights on 7:00 a.m. Food chows (Oriental Yeast Co. Tokyo, Japan) and tap water were provided ad libitum.
The compounds (10 mg/kg/day) or vehicle (0.5% methylcellulose, Wako Pure Chemical Industries Limited, Osaka, Japan) was orally administered to the mice once a day for 3 weeks. After the gavages, the novel object recognition test was performed. The test procedure consisted of three sessions: habituation, training, and retention. In the training and retention sessions, observer was not informed of the group name or animal number (blind method). 4-5 mice were habituated to the box (30×30×30 high cm), with 30 minutes of exploration in the absence of objects (habituation session). During the training session, two objects were placed in the back corner of the box. A mouse was then placed at another corner of the box and the total time spent exploring the two objects was recorded for 5 minutes. During the retention session, animals were placed back into the same box 24 hours after the training session, in which one of the familiar objects used during training was replaced with a novel object. The animals were then allowed to explore freely for 5 minutes and the time spent exploring each object was recorded. Throughout the experiments, the objects were used in a counterbalanced manner in terms of an environmental effect, their physical complexity and emotional neutrality. A preference index (PI), a ratio of the amount of time spent exploring the novel object over the total time spent exploring both objects, was used to measure cognitive function. Furthermore, recovery ratio was calculated by following formula; [Recovery ratio]=[[PI of Tg2576 mice treated by each compound]−[PI of Tg2576 mice treated by vehicle]]/[[PI of wild type mice]−[PI of Tg2576 mice treated by vehicle]].×100(%)

SMILES | activity at 1 µM (rat mixed glial culture) [%] | Inhibition of Akt degradation (%) (Akt protein) | Preference index (% recovery) (Tg2576 transgenic mice)
COc1ccc(N2CCN(c3c(C)c(C)c4c(c3C)C[C@@H](C)O4)CC2)cc1 [Example 21, 1-(4-Methoxyphenyl)-4-[(2R)-2,4,6,7-tetramethyl-2,3-dihydro-1-benzofuran-5-yl]piperazine] | 212 | 121.3 | –
COc1ccc(N2CCN(c3c(C)c(C)c4c(c3C)C[C@H](C)O4)CC2)cc1 [Example 22, 1-(4-Methoxyphenyl)-4-[(2S)-2,4,6,7-tetramethyl-2,3-dihydro-1-benzofuran-5-yl]piperazine] | 389 | 73.9 | 76.9
CCOc1ccc(N2CCN(c3c(C)c4c(c(OC)c3C)OC(C)(C)C4)CC2)cc1 [Example 65, 1-(4-Ethoxyphenyl)-4-(7-methoxy-2,2,4,6-tetramethyl-2,3-dihydro-1-benzofuran-5-yl)piperazine] | > 500 | 121.0 | –
COc1ccc(N2CCN(c3c(C)c(C)c4c(c3C)CC(C)(C)O4)CC2)cc1 [Example 17, 1-(4-Methoxyphenyl)-4-(2,2,4,6,7-pentamethyl-2,3-dihydro-1-benzofuran-5-yl)piperazine] | 216 | 73.3 | 70.9
Cc1ccc(N2CCN(c3c(C)c(C)c4c(c3C)CC(C)(C)O4)CC2)cc1 [Example 12, 1-(4-Methylphenyl)-4-(2,2,4,6,7-pentamethyl-2,3-dihydro-1-benzofuran-5-yl)piperazine] | 336 | – | –
COc1ccc(N2CCN(c3c(C)c4c(c(OC)c3C)OC(C)(C)C4)CC2)cc1 [Example 47, 1-(4-Methoxyphenyl)-4-(7-methoxy-2,2,4,6-tetramethyl-2,3-dihydro-1-benzofuran-5-yl)piperazine] | > 500 | 55.2 | 82.2
COc1c(C)c(N2CCN(c3ccc(C)cc3)CC2)c(C)c2c1OC(C)(C)C2 [Example 62, 1-(7-Methoxy-2,2,4,6-tetramethyl-2,3-dihydro-1-benzofuran-5-yl)-4-(4-methylphenyl)piperazine] | > 500 | – | –
COc1ccc(N2CCN(c3c(C)c(C)c4c(c3C)CC(C)(CN3CCCC3)O4)CC2)cc1 (stereo not drawn) [Example 116, 1-(4-Methoxyphenyl)-4-[2,4,6,7-tetramethyl-2-(pyrrolidin-1-ylmethyl)-2,3-dihydro-1-benzofuran-5-yl]piperazine] | 276 | – | –
Cc1c(C)c(N2CCN(c3ccc(C#N)cc3)CC2)c(C)c2c1OC(C)(C)C2 [Example 90, 4-[4-(2,2,4,6,7-Pentamethyl-2,3-dihydro-1-benzofuran-5-yl)piperazin-1-yl]benzonitrile] | > 500 | – | –
Cc1c(C)c(N2CCN(c3ccc(F)cc3)CC2)c(C)c2c1OC(C)(C)C2 [Example 41, 1-(4-Fluorophenyl)-4-(2,2,4,6,7-pentamethyl-2,3-dihydro-1-benzofuran-5-yl)piperazine] | > 500 | – | –
COc1ccc(N2CCCN(c3c(C)c(C)c4c(c3C)CC(C)(C)O4)CC2)cc1 [Example 45, 1-(4-Methoxyphenyl)-4-(2,2,4,6,7-pentamethyl-2,3-dihydro-1-benzofuran-5-yl)-1,4-diazepane] | 205 | – | –
COc1ccc(N2CCN(c3c(C)c(C)c4c(c3C)CC(C)(C)O4)CC2)c(OC)c1 [Example 1, 1-(2,4-Dimethoxyphenyl)-4-(2,2,4,6,7-pentamethyl-2,3-dihydro-1-benzofuran-5-yl)piperazine] | 407 | 73.3 | –
COc1ccc(N2CCN(c3c(C)c(C)c4c(c3C)CC(C)O4)CC2)cc1 (stereo not drawn) [Example 20, 1-(4-Methoxyphenyl)-4-[2,4,6,7-tetramethyl-2,3-dihydro-1-benzofuran-5-yl]piperazine] | 187 | 73.9 | –
COc1ccc(N2CCN(c3c(C)c(C)c4c(c3C)CC(C)(C)O4)CC2)cc1F [Example 32, 1-(3-Fluoro-4-methoxyphenyl)-4-(2,2,4,6,7-pentamethyl-2,3-dihydro-1-benzofuran-5-yl)piperazine] | > 500 | – | –
COc1ccc(N2CCN(c3cc4c(cc3-c3ccc(C)cc3)OC(C)(C)C4)CC2)cc1 [Example 2, 1-[2,2-Dimethyl-6-(4-methylphenyl)-2,3-dihydro-1-benzofuran-5-yl]-4-(4-methoxyphenyl)piperazine] | 432 | – | –
Cc1nn(C)c(C)c1N1CCN(c2c(C)c(C)c3c(c2C)CC(C)(C)O3)CC1 [Example 117, 1-(2,2,4,6,7-Pentamethyl-2,3-dihydro-1-benzofuran-5-yl)-4-(1,3,5-trimethyl-1H-pyrazole-4-yl)piperazine] | 100 | – | –
COc1ccc(N2CCN(c3c(C)c(C)c4c(c3C)CC(C)(CN(C)C)O4)CC2)cc1 (stereo not drawn) [Example 102, 1-{5-[4-(4-Methoxyphenyl)piperazin-1-yl]-2,4,6,7-tetramethyl-2,3-dihydro-1-benzofuran-2-yl}-N,N-dimethylmethaneamine] | 347 | – | –
